We go through four molecules from patent US9784732B2, “Acidic environment-detecting fluorescent probe” (THE UNIVERSITY OF TOKYO, priority 2011, dated 2017).

The test system of one data set is HER2. Briefly: High-throughput evaluation of HER2 downregulation. In kind it is cell-based. The following applies: 17-AAG 10 μM with Compound 3 30 nm; SKOV3 cells expressing HER2-HaloTag; five hours; versus DMSO. The protocol:
The pH-sensitive fluorescent probe Compound 3 and 17-AAG (Wako Pure Chemicals) were diluted with water. An equal amount of DMSO (Sigma-Aldrich) was added as a control for the 17-AAG. SKOV3 cells expressing the HER2-HaloTag were suspended in RPMI (Nacalai Tesque) containing 2% FBS (CCB), implanted in a 384-well imaging plate (PerkinElmer), and cultured overnight at 37° C. in a 5% CO2 atmosphere.
Compound 3 and 17-AAG were added to […] of a 384-well imaging plate implanted with SKOV3 cells expressing the HER2-HaloTag to respective final concentrations of 30 nm and 10 μM. DMSO alone was added to 32 wells instead of 17-AAG as a control. Fluorescence values at 580 nm induced by 535 excitation were measured using a plate reader, after which culturing was performed at 37° C. in a 5% CO2 atmosphere for five hours, and fluorescence values were again measured using the plate reader. […] In this way, it is possible to simply evaluate downregulation of the cancer-related receptor HER2 via fluorescence values.

The nature of data set [1]: Optical properties and fluorescence quantum yield. In kind it is physicochemical. The following applies: for Maximum Absorption Wavelength (nm) / Maximum Emission Wavelength (nm): 200 mM sodium phosphate buffer, 0.03% (v/v) DMSO. The protocol: (§1) In order to measure absorption and fluorescence spectra, a dye compound was dissolved in dimethyl sulfoxide (DMSO, fluorescent analysis-grade, Dojindo) to obtain 1 mM of standard solution. Using a UV-1650 PCUV/V spectrometer (Shimadzu) and an FP-6600 fluorescence spectrometer (JASCO), the optical properties of the dye compound in 200 mM of a sodium phosphate buffer solution containing 0.03% (v/v) DMSO as a cosolvent were measured. In order to determine fluorescence quantum yield (Φf1), the value (Φf1=0.65) of Rhodamine B in ethanol was used as a standard. The value was calculated according to the following formula. Φx/Φst=[Ast/Ax][nx^2/nst^2][Dx/Dst]
The absorption spectrum and fluorescence emission spectrum when solution pH was altered from 2.0 to 10.0 for Compound A obtained in Example 1 were obtained according to the measurement method described above. Absorption spectra are shown in FIG. 1-1, fluorescence emission spectra in FIG. 1-2, and a pH profile showing pH-induced changes in fluorescent intensity in FIG. 1-3. The maximum absorption wavelength, maximum emission wavelength, fluorescent quantum yield, and pKa when pH is changed from 10.0 to 4.0 are shown in table 1.

The nature of data set [2]: pH profile of fluorescent intensity (pKa) in phosphate buffer. The data set is classed as physicochemical. The following applies: sodium phosphate buffer, from pH profile of fluorescent intensity. As to the method:
as §1
The absorption spectrum and fluorescence emission spectrum when solution pH was altered from 2.0 to 10.0 for Compound A obtained in Example 1 were obtained according to the measurement method described above.
Using a 100 mM phosphate buffer solution of Compound 1 (500 nM) obtained in Example 2, pH was altered from 4.39 to 9.24, and the fluorescence spectrum was measured.
A fitted curve for the pH profile was obtained according to the following formula.
Next, in order to investigate the reversibility of pH changes in Dye Conjugate 1, the fluorescent intensity ratio (fluorescent intensity at 540 nm/fluorescent intensity at 488 nm) was calculated for a case in which pH was cycled between 7.1 and 3.2 every 30 seconds.

For data set [3] the following is noted: in ethanol; cited from earlier work.

Like-named read-outs stand apart in the source and are kept apart here.

As usually defined, the pKa is the negative logarithm of the acid dissociation constant.

With `C=CCNC1=C2C[C@@H](C)C[C@H](OC)[C@H](O)[C@@H](C)/C=C(\C)[C@H](OC(N)=O)[C@@H](OC)/C=C\C=C(/C)C(=O)NC(=CC1=O)C2=O` [Compound 17-AAG], in the data set on HER2, the “Difference in fluorescence values before and after culturing (F5−F0)” value is on record as “large increase in fluorescence values”.

For the molecule `CN1CCN(c2ccc3c(-c4ccccc4C(=O)O)c4ccc(=[N+]5CCN(C)CC5)cc-4oc3c2)CC1.[Cl-]` [Compound A, 1-(9-(2-carboxyphenyl)-6-(4-methylpiperazine-1-yl)-3H-xanthene-3-ylidene)-4-methylpiperazine-1-ium chloride], the “Shift of maximum absorption wavelength to shorter wavelength” value in data set [1] (deprotonated type (pH 10.0) to protonated type (pH 4.0)) was 20 nm. The figures for the “Maximum Absorption Wavelength (nm)” value in data set [1] (pH 4.0) and in data set [1] (pH 10.0) were 527 nm and 547 nm, respectively. The entries for the “Maximum Emission Wavelength (nm)” value in data set [1] (pH 4.0) and in data set [1] (pH 10.0) were 554 nm and 575 nm, respectively. In addition, the “Fluorescence Quantum Yield” value in data set [1] (pH 10.0 (deprotonated type), standard Rhodamine B in ethanol) was 0.024. Moreover, the pKa in data set [2] (read-out: pKa (higher, pKa2)) amounted to 6.8; in data set [2] (read-out: pKa (lower, pKa1)), 5.4.

With `CN1CCN(c2ccc3c(-c4ccccc4C(=O)N(C)CC(=O)NCCOCCOCCOCCC(=O)[O-])c4ccc(=[N+]5CCN(C)CC5)cc-4oc3c2)CC1` [Compound D, 2-methyl-1-(2-(3-(4-methylpiperazine-1-ium-1-ylidene)-6-(4-methylpiperazine-1-yl)-3H-xanthene-9-yl)phenyl)-1,4-dioxo-8,11,14-trioxa-2,5-diazaheptadecane-17-oate], the pKa in data set [2] (read-out: pKa (higher, pKa2)) was 6.6; in data set [2] (read-out: pKa (lower, pKa1)), 5.3.

In the case of `CCN(CC)c1ccc2c(-c3ccccc3C(=O)O)c3ccc(=[N+](CC)CC)cc-3oc2c1.[Cl-]` [Rhodamine B], the “Fluorescence Quantum Yield of the standard” value in data set [3] is listed as 0.65.
